Results as given in publication PMC11694061 (Cancer Research, 2024).
Where two headings read alike, the source gives them in different places.

Tests used:
[1] = test system: K562 cells; experiment: Proliferation, K562; type: cell-based, human; settings: Table S1 screening, read-out: IC50 (cell proliferation inhibition in K562 cells)
Procedure: Cells were inoculated onto 96-well plates and treated with compounds in serial dilutions for 3 or 5 days. […] The cell viability of primary patient samples was tested using the CellTiter-Glo Luminescent Assay kit (G7573, Promega) according to the manufacturer’s instructions. […] The optical density (OD) values were obtained using a SPARK microplate reader (Tecan). IC50 was calculated using GraphPad Prism 8.0.2 (nonlinear regression analysis with four parameters). Drug synergy was evaluated with combination index (CI) values using CalcuSyn Demo Version 2.0 software. CI > 1 indicates antagonism, CI < 1 indicates synergy, and CI = 1 indicates additivity.

[2] = biological target: T1, SOS1 in K562 cells (Homo sapiens, UniProt Q07889); experiment: SOS1 degradation in K562 cells (Western blot); type: cell-based
T1 construct: endogenous in cells; host or cells: K562
T1 sequence (Q07889 1-1333): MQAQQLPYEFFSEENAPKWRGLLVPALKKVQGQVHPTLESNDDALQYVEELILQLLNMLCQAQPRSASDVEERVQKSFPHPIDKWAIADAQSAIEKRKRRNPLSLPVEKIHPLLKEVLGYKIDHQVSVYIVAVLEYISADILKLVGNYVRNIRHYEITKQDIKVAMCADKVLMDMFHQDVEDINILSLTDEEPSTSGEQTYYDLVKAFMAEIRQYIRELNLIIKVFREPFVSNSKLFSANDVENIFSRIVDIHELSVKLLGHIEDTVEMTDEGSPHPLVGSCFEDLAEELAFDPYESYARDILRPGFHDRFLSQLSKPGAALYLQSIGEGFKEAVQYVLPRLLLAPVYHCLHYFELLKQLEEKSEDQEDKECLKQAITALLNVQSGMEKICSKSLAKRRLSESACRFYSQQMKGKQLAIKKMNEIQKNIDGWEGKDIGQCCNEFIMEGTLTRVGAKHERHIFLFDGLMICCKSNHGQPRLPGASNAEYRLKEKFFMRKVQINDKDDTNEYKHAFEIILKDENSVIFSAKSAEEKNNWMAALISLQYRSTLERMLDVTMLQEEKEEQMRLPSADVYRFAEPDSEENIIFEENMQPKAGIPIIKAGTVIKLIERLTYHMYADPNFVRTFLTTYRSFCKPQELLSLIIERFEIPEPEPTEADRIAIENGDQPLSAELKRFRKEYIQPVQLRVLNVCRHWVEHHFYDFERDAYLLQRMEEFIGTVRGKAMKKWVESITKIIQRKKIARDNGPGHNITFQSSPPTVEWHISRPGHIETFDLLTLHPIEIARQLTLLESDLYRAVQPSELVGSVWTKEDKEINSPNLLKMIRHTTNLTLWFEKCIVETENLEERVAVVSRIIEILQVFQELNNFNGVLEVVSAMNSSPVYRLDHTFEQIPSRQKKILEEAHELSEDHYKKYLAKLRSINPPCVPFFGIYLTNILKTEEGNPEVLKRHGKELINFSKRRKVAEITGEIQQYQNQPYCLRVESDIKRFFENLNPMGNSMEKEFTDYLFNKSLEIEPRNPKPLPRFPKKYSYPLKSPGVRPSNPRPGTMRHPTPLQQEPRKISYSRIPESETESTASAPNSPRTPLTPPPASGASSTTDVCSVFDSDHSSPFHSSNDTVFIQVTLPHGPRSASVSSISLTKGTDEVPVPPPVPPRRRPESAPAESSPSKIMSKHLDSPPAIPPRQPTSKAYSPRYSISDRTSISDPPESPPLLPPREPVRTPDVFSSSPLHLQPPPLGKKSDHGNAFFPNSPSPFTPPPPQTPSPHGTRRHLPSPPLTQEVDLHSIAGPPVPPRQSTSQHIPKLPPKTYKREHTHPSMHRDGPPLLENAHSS
Excerpt: After treatment, the cells were harvested with SDS lysis buffer, and SDS-PAGE gels were used to split the proteins in the lysate solutions. […] AB_2758039).

SMILES | IC50 [1] [µM] | Degradation of SOS1 (%) ([2]; 0.1 μM) | Degradation of SOS1 (%) ([2]; 1.0 μM) | IC50 ([1]; Homo sapiens, K562) [µM] | percent SOS1 degradation at 0.1 µM ([2]; 0.1 μM) [%] | percent SOS1 degradation at 1 µM ([2]; 1.0 μM) [%]
COc1cc2nc(C)nc(N[C@H](C)c3cc(N)cc(C(F)(F)F)c3)c2cc1O[C@H]1CCN(CCCSc2cccc3c2CN(C2CCC(=O)NC2=O)C3=O)C1 (stereo partly drawn) [SIAIS561084] | 1.31 ± 0.176 | 7.3 ± 8.5 | -19.5 ± 2.2 |  |  | 
COc1cc2nc(C)nc(N[C@H](C)c3cc(N)cc(C(F)(F)F)c3)c2cc1O[C@H]1CCN(C(=O)CCCCSc2cccc3c2CN(C2CCC(=O)NC2=O)C3=O)C1 (stereo partly drawn) [SIAIS561086] |  |  |  | 7.69 ± 0.0912 | 22.7 ± 1.7 | 33.5 ± 4.7
COc1cc2nc(C)nc(N[C@H](C)c3cc(N)cc(C(F)(F)F)c3)c2cc1O[C@H]1CCN(C(=O)CCCCCSc2cccc3c2CN(C2CCC(=O)NC2=O)C3=O)C1 (stereo partly drawn) [SIAIS561087] |  |  |  | 6.51 ± 0.514 | 53.5 ± 0.6 | 39.9 ± 0.9
COc1cc2nc(C)nc(N[C@H](C)c3cc(N)cc(C(F)(F)F)c3)c2cc1O[C@H]1CCN(CCSc2cccc3c2CN(C2CCC(=O)NC2=O)C3=O)C1 (stereo partly drawn) [SIAIS561091] | 1.2 ± 0.0658 | 36.2 ± 5.7 | 27.0 ± 7.5 |  |  | 
COc1cc2nc(C)nc(N[C@H](C)c3cc(N)cc(C(F)(F)F)c3)c2cc1O[C@H]1CCN(C(=O)CSc2cccc3c2CN(C2CCC(=O)NC2=O)C3=O)C1 (stereo partly drawn) [SIAIS561092] |  |  |  | 7.29 ± 1.01 | -26.5 ± 8.3 | 8.1 ± 2.3
COc1cc2nc(C)nc(N[C@H](C)c3cc(N)cc(C(F)(F)F)c3)c2cc1O[C@H]1CCN(C(=O)CCSc2cccc3c2CN(C2CCC(=O)NC2=O)C3=O)C1 (stereo partly drawn) [SIAIS561093] |  |  |  | 16.4 ± 2.44 | 19.9 ± 1.8 | 24.7 ± 4.4
COc1cc2nc(C)nc(N[C@H](C)c3cc(N)cc(C(F)(F)F)c3)c2cc1O[C@H]1CCN(C(=O)CCCSc2cccc3c2CN(C2CCC(=O)NC2=O)C3=O)C1 (stereo partly drawn) [SIAIS561094] |  |  |  | 7.13 ± 0.224 | 32.9 ± 0.4 | 35.3 ± 0.6
COc1cc2nc(C)nc(N[C@H](C)c3cc(N)cc(C(F)(F)F)c3)c2cc1O[C@H]1CCN(C(=O)CCCCCCSc2cccc3c2CN(C2CCC(=O)NC2=O)C3=O)C1 (stereo partly drawn) [SIAIS561095] |  |  |  | 5.23 ± 1.39 | 26.7 ± 3 | 3.9 ± 4.7
COc1cc2nc(C)nc(N[C@H](C)c3cc(N)cc(C(F)(F)F)c3)c2cc1O[C@H]1CCN(C(=O)CCCCCCCCCSc2cccc3c2CN(C2CCC(=O)NC2=O)C3=O)C1 (stereo partly drawn) [SIAIS561097] |  |  |  | 15.1 ± 2.04 | -10.2 ± 5.5 | -20.9 ± 9
COc1cc2nc(C)nc(N[C@H](C)c3cc(N)cc(C(F)(F)F)c3)c2cc1O[C@H]1CCN(C(=O)CCCCCCCCCCSc2cccc3c2CN(C2CCC(=O)NC2=O)C3=O)C1 (stereo partly drawn) [SIAIS561098] |  |  |  | 11.5 ± 0.515 | 1.1 ± 1 | 17 ± 2.2
COc1cc2nc(C)nc(N[C@H](C)c3cc(N)cc(C(F)(F)F)c3)c2cc1OC1CCN(C(=O)CSc2cccc3c2CN(C2CCC(=O)NC2=O)C3=O)CC1 (stereo partly drawn) [SIAIS561131] |  |  |  | 17.8 ± 3.9 | 12.3 ± 6.5 | -2.3 ± 9.5
COc1cc2nc(C)nc(N[C@H](C)c3cc(N)cc(C(F)(F)F)c3)c2cc1OC1CCN(C(=O)CCCCCCCCCCSc2cccc3c2CN(C2CCC(=O)NC2=O)C3=O)CC1 (stereo partly drawn) [SIAIS561138] |  |  |  | 8.97 ± 0.146 | -14.6 ± 1.1 | 11 ± 0.6
COc1cc2nc(C)nc(N[C@H](C)c3cc(N)cc(C(F)(F)F)c3)c2cc1O[C@H]1CCN(C(=O)CCCCCCCCSc2cccc3c2CN(C2CCC(=O)NC2=O)C3=O)C1 (stereo partly drawn) [SIAIS562079] |  |  |  | 7.08 ± 0.216 | 44.4 ± 6.5 | 49.7 ± 14
COc1cc2nc(C)nc(N[C@H](C)c3cc(N)cc(C(F)(F)F)c3)c2cc1OC1CCN(C(=O)CCCCCCCCSc2cccc3c2CN(C2CCC(=O)NC2=O)C3=O)CC1 (stereo partly drawn) [SIAIS562080] |  |  |  | 4.95 ± 0.412 | -46.9 ± 11 | 5.5 ± 3.2

More lines, in order of falling IC50 ([1]; Homo sapiens, K562), values ahead:

IC50 [1] [µM] | Degradation of SOS1 (%) ([2]; 0.1 μM) | Degradation of SOS1 (%) ([2]; 1.0 μM) | IC50 ([1]; Homo sapiens, K562) [µM] | percent SOS1 degradation at 0.1 µM ([2]; 0.1 μM) [%] | percent SOS1 degradation at 1 µM ([2]; 1.0 μM) [%] | SMILES
 |  |  | 4.68 ± 1.21 | 21.3 ± 0.5 | 71 ± 1.6 | COc1cc2nc(C)nc(N[C@H](C)c3cc(N)cc(C(F)(F)F)c3)c2cc1O[C@H]1CCN(C(=O)CCCCCCCCCCCSc2cccc3c2CN(C2CCC(=O)NC2=O)C3=O)C1 (stereo partly drawn) [SIAIS562082]
 |  |  | 4.13 ± 0.34 | -5.4 ± 2.2 | 35.5 ± 1 | COc1cc2nc(C)nc(N[C@H](C)c3cc(N)cc(C(F)(F)F)c3)c2cc1OC1CCN(C(=O)CCCCCCCCCCCSc2cccc3c2CN(C2CCC(=O)NC2=O)C3=O)CC1 (stereo partly drawn) [SIAIS562083]
 |  |  | 3.6 ± 0.103 | 5.2 ± 12.8 | 14.2 ± 11.1 | COc1cc2nc(C)nc(N[C@H](C)c3cc(N)cc(C(F)(F)F)c3)c2cc1OC1CCN(C(=O)CCCCSc2cccc3c2CN(C2CCC(=O)NC2=O)C3=O)CC1 (stereo partly drawn) [SIAIS561134]
 |  |  | 3.06 ± 1.1 | 3.6 ± 3.2 | 15.7 ± 3 | COc1cc2nc(C)nc(N[C@H](C)c3cc(N)cc(C(F)(F)F)c3)c2cc1OC1CCN(C(=O)CCCCCCCCCSc2cccc3c2CN(C2CCC(=O)NC2=O)C3=O)CC1 (stereo partly drawn) [SIAIS561137]
 |  |  | 2.75 ± 0.36 | -15.2 ± 2 | 7.7 ± 4.3 | COc1cc2nc(C)nc(N[C@H](C)c3cc(N)cc(C(F)(F)F)c3)c2cc1OC1CCN(C(=O)CCCCCCCSc2cccc3c2CN(C2CCC(=O)NC2=O)C3=O)CC1 (stereo partly drawn) [SIAIS561139]
 |  |  | 2.53 ± 0.261 | 18.2 ± 6.2 | 49.3 ± 2.2 | COc1cc2nc(C)nc(N[C@H](C)c3cc(N)cc(C(F)(F)F)c3)c2cc1OC1CCN(C(=O)CCCCCCSc2cccc3c2CN(C2CCC(=O)NC2=O)C3=O)CC1 (stereo partly drawn) [SIAIS561136]
 |  |  | 1.85 ± 0.455 | 11.3 ± 4.8 | 12.7 ± 6.3 | COc1cc2nc(C)nc(N[C@H](C)c3cc(N)cc(C(F)(F)F)c3)c2cc1OC1CCN(C(=O)CCCCCSc2cccc3c2CN(C2CCC(=O)NC2=O)C3=O)CC1 (stereo partly drawn) [SIAIS561135]
 |  |  | 1.67 ± 0.0177 | -26.7 ± 1.7 | -4 ± 11.7 | COc1cc2nc(C)nc(N[C@H](C)c3cc(N)cc(C(F)(F)F)c3)c2cc1OC1CCN(C(=O)CCCSc2cccc3c2CN(C2CCC(=O)NC2=O)C3=O)CC1 (stereo partly drawn) [SIAIS561133]
 |  |  | 1.55 ± 0.0714 | 57.2 ± 0.7 | 49.7 ± 0.9 | COc1cc2nc(C)nc(N[C@H](C)c3cc(N)cc(C(F)(F)F)c3)c2cc1O[C@H]1CCN(C(=O)CCCCCCCSc2cccc3c2CN(C2CCC(=O)NC2=O)C3=O)C1 (stereo partly drawn) [SIAIS561096]
 |  |  | 0.846 ± 0.157 | 4.6 ± 1.8 | 38.7 ± 1.1 | COc1cc2nc(C)nc(N[C@H](C)c3cc(N)cc(C(F)(F)F)c3)c2cc1O[C@H]1CCN(CCCCCCCCCCCSc2cccc3c2CN(C2CCC(=O)NC2=O)C3=O)C1 (stereo partly drawn) [SIAIS562019]
 |  |  | 0.822 ± 0.083 | 30.4 ± 0.3 | 86.4 ± 0.4 | COc1cc2nc(C)nc(N[C@H](C)c3cc(N)cc(C(F)(F)F)c3)c2cc1O[C@H]1CCN(CCCCCCCCCCCCSc2cccc3c2CN(C2CCC(=O)NC2=O)C3=O)C1 (stereo partly drawn) [SIAIS562020]
 |  |  | 0.112 ± 0.0042 | -14.7 ± 10.2 | -3.8 ± 4.2 | COc1cc2nc(C)nc(N[C@H](C)c3cc(N)cc(C(F)(F)F)c3)c2cc1OC1CCN(C(=O)CCSc2cccc3c2CN(C2CCC(=O)NC2=O)C3=O)CC1 (stereo partly drawn) [SIAIS561132]
